Holding throughout (assay type): cell-based
In one assay the test system is phospho-Akt (Ser473). Put plainly: Cellular PI3K/Akt pathway assay (phospho-Akt ELISA). Particulars: Homo sapiens, MCF7 cells, β-Heregulin stimulated, 48 h incubation. From the text: Cellular PI3K/Akt Pathway Assay
In order to study the cellular activity of the compounds according to the present invention, an Enzyme Linked Immunosorbent Assay (ELISA)-based assay has been used specific phospho-AKT. The assay is based on a Sandwich ELISA kit (PathScan™ Phospho-Akt1 (Ser473); Cell Signaling, USA; #7160). The ELISA Kit detects endogenous levels of phosphorylated Akt protein. A phospho-Akt (Ser473) antibody (Cell Signaling, USA; #9271) has been coated onto the microwells. After incubation with cell lysates, the coated antibody captures the phosphorylated Akt protein. Following extensive washing, Akt1 monoclonal antibody (Cell Signaling, USA; #2967) is added to detect the captured phospho-Akt1 protein. HRP-linked anti-mouse antibody (HRP: horseradish peroxidase; Cell Signaling, USA; #7076) is then used to recognize the bound detection antibody. HRP substrate (=3,3′,5,5′-tetramethylbenzidine (TMB); Cell Signaling, USA; #7160) is added to develop colour. The magnitude of optical density for this developed color is proportional to the quantity of phosphorylated Akt protein.
MCF7 cells (ATCC HTB-22) are seeded into 96 well fate bottom plates at a density of 10000 cells/well. 24 hours after seeding, the cells are serum starved using low-serum medium (IMEM media including 0.1% charcoal treated FCS (FCS: fetal calf serum)). After 24 hours 1 μl each of the compound dilutions (test compounds were dissolved as 10 mM solutions in dimethylsulfoxide (DMSO) and subsequently diluted) are added into each well of the 96 well plates and incubated for 48 h at 37° C. in a humidified atmosphere containing 5% CO2. To stimulate Akt phosphorylation, β-Heregulin (20 ng/ml β-HRG) is added in parallel to the compounds. Wells containing unstimulated control cells (no β-Heregulin stimulation) are incubated with or without the diluted compound. Wells containing untreated control cells (no compound) are filled with medium containing 0.5% v:v DMSO and are or are not stimulated with β-Heregulin.
Cells are harvested and lysed with brief sonification in 1× cell lysis buffer (20 mM Tris (pH7.5), 150 mM NaCl, 1 mM ethylene diaminetetraacetate (EDTA), 1 mM ethylene glycolbis(2-aminoethyl)-N,N,N′,N′-tetraacetic acid (EGTA), 1 vol % Triton X-100, 2.5 mM sodium pyrophosphate, 1 mM β-glycerolphosphate, 1 mM Na3VO4, 1 μg/ml leupeptin). The lysate is centrifuged for 10 min. at 4° C. and the supernatant is transferred to a new tube. 100 μl of sample diluent (0.1 vol % Tween-20, 0.1 vol % sodium azide in phosphate buffered saline (PBS)) are added to a microcentrifuge tube and 100 μl of cell lysate are transferred into the tube and vortexed. 100 μl of each diluted cell lysate are added to the appropriate ELISA well, and incubated overnight at 4° C. The plates are washed 4 times with 1× wash buffer (1 vol % tween-20, 0.33 vol % thymol, in PBS). Next 100 μl of detection antibody (Akt1 (2H10) monoclonal detection antibody; Cell Signaling, USA; #2967) are added to each well and incubation continued for 1 h at 37° C. The washing procedure is repeated between each step. 100 μl of secondary antibody (anti-mouse IgG HRP-linked antibody; Cell Signaling, USA; #7076) are added to each well and incubated for 30 min. at 37° C. Than, 100 μl of TMB substrate (0.05% 3,3′,5,5′ tetramethylbenzidine, 0.1% hydrogen peroxide, complex polypeptides in a buffered solution; Cell Signaling, USA; #7160) are added to each well and incubated for 30 min. at 25° C. Finally 100 μl of STOP solution (0.05 vol % α and β unsaturated carbonyl compound) are added to each well and the plate are shaked gently. The absorbance is measured at λ=450 nm (Wallac Victor2; Perkin Elmer, USA) within 30 min. after adding the STOP solution. The analysis of the data is performed using a statistical program (Excel; Microsoft, USA). Preferred compounds show an inhibitory activity towards Akt phosphorylation below 10 μM.

Another assay deals with A549 cells. Description: Cellular proliferation/cytotoxicity assay (Alamar Blue), A549. Particulars: Homo sapiens, 72 h, Alamar Blue (Resazurin), read-out: Anti-proliterative/Cytotoxic activity (A549 cells). The protocol: (§1) Cellular Proliferation/Cytotoxicity Assay:
(§2) The anti-proliferative activity of the compounds as described herein, is evaluated using the OvCAR3, HCT116 and A549 cell lines and the Alamar Blue (Resazurin) cell viability assay (O'Brien et al. Eur J Biochem 267, 5421-5426, 2000). Resazurin is reduced to the fluorescent resorufin by cellular dehydrogenase activity, correlating with viable, proliferating cells. Test compounds are dissolved as 10 mM solutions in DMSO and subsequently diluted. Cells like HCT116 or A549 cells were seeded into 96 well flat bottom plates at a density of 10000 cells/well (OvCAR3 cells), 1000 cells/well (HCT116 cells) or 2000 cells/well (A549 cells) in a volume of 200 μl/well. 24 hours after seeding, 1 μl each of the compound dilutions are added into each well of the 96 well plates. Each compound dilution is tested as at least as duplicates. Wells containing untreated control cells were filled with 200 μl DMEM (Dulbecco's Modified Eagle Medium) containing 0.5 vol % v:v DMSO. The cells are then incubated with the substances for 72 h at 37° C. in a humidified atmosphere containing 5 vol % CO2. To determine the viability of the cells, 20 μl of a Resazurin solution (90 mg/l) are added. After 4 h incubation at 37° C., the fluorescence is measured by extinction at λ=544 nm and an emission of λ=590 nm (Wallac Victor2; Perkin Elmer, USA). For the calculation of the cell viability, the emission value from untreated cells is set as 100% viability and the fluorescence intensity of treated cells are set in relation to the values of untreated cells. Viabilities are expressed as % values. The corresponding IC50 values of the compounds for cytotoxic activity are determined from the concentration-effect curves by means of non-linear regression. The analysis of the data is performed using a biostatistical program (GraphPad Prism, USA).
(§3) Representative IC50 values for anti-proliferative/cytotoxic potency determined in the aforementioned assay follow from the following table, in which the numbers of the compound correspond to the numbers of the examples.

The next assay relates to OvCAR3 cells. Put plainly: Cellular proliferation/cytotoxicity assay (Alamar Blue), OvCAR3. To be noted: Homo sapiens, OVCAR-3, 72 h, Alamar Blue (Resazurin), read-out: Anti-proliferative/Cytotoxic activity (OvCAR3 cells). The protocol: as §1, §2, §3

These results are taken from patent US8614218B2, “Fused bicyclic pyrimidines” (Bayer Intellectual Property GmbH, priority 2007, dated 2013).

In the case of `FC(F)(F)c1cn2cc(-c3ccccc3)c(-c3ccc(CN4CCC(c5n[nH]c(-c6ccccn6)n5)CC4)cc3)nc2n1` [Example 26, 6-phenyl-7-(4-{[4-(5-pyridin-2-yl-1H-1,2,4-triazol-3-yl)piperidin-1-yl]methyl}phenyl)-2-(trifluoromethyl)imidazo[1,2-a]pyrimidine], the IC50 with phospho-Akt (Ser473) was less than 1 µM; in the assay on A549 cells, less than 10 µM.

Regarding `c1ccc(-c2nc(C3CCN(Cc4ccc(-c5nc6ccnn6cc5-c5ccsc5)cc4)CC3)n[nH]2)nc1` [Example 50, 5-(4-{[4-(5-Pyridin-2-yl-1H-1,2,4-triazol-3-yl)piperidin-1-yl]methyl}phenyl)-6-(3-thienyl)pyrazolo[1,5-a]pyrimidine], the IC50 was less than 1 µM with phospho-Akt (Ser473) and less than 10 µM in the assay with A549 cells.

As to `Cc1nc2nc(-c3ccc(CN4CCC(c5n[nH]c(-c6ncccn6)n5)CC4)cc3)c(-c3ccccc3)cn2n1` [Example 45, 2-Methyl-6-phenyl-5-(4-{[4-(5-pyrimidin-2-yl-1H-1,2,4-triazol-3-yl)piperidin-1-yl]methyl}phenyl)[1,2,4]triazolo[1,5-a]pyrimidine], the IC50 with phospho-Akt (Ser473) was less than 1 µM; with A549 cells, more than 10 µM.

As for `N#Cc1cnc2nc(-c3ccc(CN4CCC(c5n[nH]c(-c6ccccn6)n5)CC4)cc3)c(-c3ccccc3)cn12` [Example 8, 6-phenyl-7-(4-{[4-(5-pyridin-2-yl-1,2,4-triazol-3-yl)piperidin-1-yl]methyl}phenyl)imidazo[1,2-a]pyrimidine-3-carbonitrile], the figures for the IC50 with A549 cells and in the assay on OvCAR3 cells were more than 10 µM and less than 10 µM, respectively.

`CCc1cnc2nc(-c3ccc(CN4CCC(c5n[nH]c(-c6ccccn6)n5)CC4)cc3)c(-c3ccccc3)cn12` [Example 22, 3-ethyl-6-phenyl-7-(4-{[4-(5-pyridin-2-yl-1,2,4-triazol-3-yl)piperidin-1-yl]methyl}phenyl)imidazo[1,2-a]pyrimidine]: the IC50 in the assay on A549 cells was more than 10 µM; with OvCAR3 cells, less than 10 µM.

Turning to `c1ccc(-c2cn3ccnc3nc2-c2ccc(CN3CCC(c4cc(-c5ccccn5)n[nH]4)CC3)cc2)cc1` [Example 5, 6-phenyl-7-(4-{[4-(3-pyridin-2-yl-pyrazol-5-yl)piperidin-1-yl]methyl}phenyl)imidazo[1,2-a]pyrimidine], the IC50 with A549 cells and in the assay on OvCAR3 cells was less than 10 µM throughout.

Regarding `Clc1cnc2nc(-c3ccc(CN4CCC(c5n[nH]c(-c6ccccn6)n5)CC4)cc3)c(-c3ccccc3)cn12` [Example 12, 3-chloro-6-phenyl-7-(4-{[4-(5-pyridin-2-yl-1,2,4-triazol-3-yl)piperidin-1-yl]methyl}phenyl)imidazo[1,2-a]pyrimidine], the IC50 in the assay with A549 cells and in the assay on OvCAR3 cells was less than 10 µM throughout.

On to `Fc1cnc2nc(-c3ccc(CN4CCC(c5n[nH]c(-c6ccccn6)n5)CC4)cc3)c(-c3ccccc3)cn12` [Example 9, 3-fluoro-6-phenyl-7-(4-{[4-(5-pyridin-2-yl-1H-1,2,4-triazol-3-yl)piperidin-1-yl]methyl}phenyl)imidazo[1,2-a]pyrimidine], for which the IC50 in the assay on A549 cells is more than 10 µM; in the assay on OvCAR3 cells, less than 10 µM.

On to `Brc1cnc2nc(-c3ccc(CN4CCC(c5n[nH]c(-c6ccccn6)n5)CC4)cc3)c(-c3ccccc3)cn12` [Example 11, 3-bromo-6-phenyl-7-(4-{[4-(5-pyridin-2-yl-1,2,4-triazol-3-yl)piperidin-1-yl]methyl}phenyl)imidazo[1,2-a]pyrimidine], for which the figures for the IC50 in the assay with A549 cells and in the assay on OvCAR3 cells were more than 10 µM and less than 10 µM, respectively.

In the case of `c1ccc(-c2cn3ccnc3nc2-c2ccc(CN3CCC(c4n[nH]c(-c5ccncc5)n4)CC3)cc2)cc1` [Example 6, 6-phenyl-7-(4-{[4-(5-pyridin-4-yl-1,2,4-triazol-3-yl)piperidin-1-yl]methyl}phenyl)imidazo[1,2-a]pyrimidine], the IC50 in the assay on A549 cells and with OvCAR3 cells was less than 10 µM throughout.

`c1ccc(-c2cn3ccnc3nc2-c2ccc(CN3CCC(n4cnc(-c5ccccn5)c4)CC3)cc2)cc1` [Example 20, 6-phenyl-7-(4-{[4-(4-pyridin-2-yl-imidazol-1-yl)piperidin-1-yl]methyl}phenyl)imidazo[1,2-a]pyrimidine]: the IC50 is more than 10 µM with A549 cells and less than 10 µM in the assay with OvCAR3 cells.

Consider `Cc1nc2nc(-c3ccc(CN4CCC(c5n[nH]c(-c6ccccn6)n5)CC4)cc3)c(-c3ccccc3)c(C)n2n1` [Example 39, 2,7-Dimethyl-6-phenyl-5-(4-{[4-(5-pyridin-2-yl-1H-1,2,4-triazol-3-yl)piperidin-1-yl]methyl}phenyl)[1,2,4]triazolo[1,5-a]pyrimidine], for which the results for the IC50 in the assay with phospho-Akt (Ser473) and with A549 cells were less than 1 µM and less than 10 µM, respectively.

As for `c1ccc(-c2cn3nc(C4CCC4)nc3nc2-c2ccc(CN3CCC(c4n[nH]c(-c5ccccn5)n4)CC3)cc2)cc1` [Example 7, 2-cyclobutyl-6-phenyl-5-(4-{[4-(5-pyridin-2-yl-1,2,4-triazol-3-yl)piperidin-1-yl]methyl}phenyl)[1,2,4]triazolo[1,5-a]pyrimidine], the results for the IC50 with A549 cells and in the assay with OvCAR3 cells were more than 10 µM and less than 10 µM, respectively.

For the compound `CCOC(=O)c1cn2cc(-c3ccccc3)c(-c3ccc(CN4CCC(c5n[nH]c(-c6ccccn6)n5)CC4)cc3)nc2n1` [Example 16, Ethyl 6-phenyl-7-(4-{[4-(5-pyridin-2-yl-1,2,4-triazol-3-yl)piperidin-1-yl]methyl}phenyl)imidazo[1,2-a]pyrimidine-2-carboxylate], the IC50 was more than 10 µM with A549 cells and less than 10 µM in the assay with OvCAR3 cells.

Consider `Cc1cc2nc(-c3ccc(CN4CCC(c5n[nH]c(-c6ccccn6)n5)CC4)cc3)c(-c3ccccc3)c(C)n2n1` [Example 49, 2,7-Dimethyl-6-phenyl-5-(4-{[4-(5-pyridin-2-yl-1H-1,2,4-triazol-3-yl)piperidin-1-yl]methyl}phenyl)pyrazolo[1,5-a]pyrimidine], for which the values for the IC50 in the assay on phospho-Akt (Ser473) and in the assay on A549 cells were less than 1 µM and less than 10 µM, respectively.
